Measured values as given in paper PMC9161616, “A first-in-human phase 1/2 study of FGF401 and combination of FGF401 with spartalizumab in patients with hepatocellular carcinoma or biomarker-selected solid tumors” (Journal of Experimental & Clinical Cancer Research : CR, 2022).
Where two headings read alike, the source gives them in different places.

Columns and labels:
[1] = tested on: patients with HCC; parameters: method as in PMID 31575541; conditions: cited from earlier work
[2] = tested on: patients with HCC and intrahepatic cholangiocarcinoma; parameters: method as in doi:10.1200/JCO.2019.37.15_suppl.4095, doi:10.1200/JCO.2021.39.15_suppl.4090; conditions: cited from earlier work
[3] = Pharmacokinetics of spartalizumab in combination arm; format: in vivo, human; conditions: for AUC0-504h / AUClast / Cmax / Tmax: Cycle 1 day 1; for AUC0-504h / AUClast / Cmax: geometric mean (CV%); for Tmax: median [min, max]
Experimental: (§1) Pharmacokinetic endpoints included plasma concentrations and PK parameters of FGF401 and spartalizumab. Pharmacokinetic parameters were determined with noncompartmental method(s) using Phoenix WinNonlin version 6.4 or above (Pharsight Corporation, Mountain View, Califormia, USA). Immunogenicity of spartalizumab was assessed through presence and/or concentration of anti-drug (spartalizumab) antibodies (ADA). Food effect on FGF401 exposure was evaluated through plasma concentration of FGF401 and relevant PK parameters when dosing under fed condition. Safety of the food effect was assessed through incidence and severity of AEs and serious AEs (SAEs), including changes in laboratory values, vital signs, and ECGs when dosing under fed condition.
The PK analyses and summary statistics were based on pharmacokinetic analysis set. Individual as well as mean concentration-time profiles were constructed using concentration data for spartalizumab and FGF401. Descriptive statistics for PK parameters included mean, standard deviation, coefficient of variation (CV%) mean, geometric mean, median, minimum, and maximum, with only the latter 3 for time to reach maximum concentration (Tmax) and additional 90% CI for accumulation ratio (Racc). Zero concentrations were not included in the geometric mean calculations. Missing concentrations or PK parameter values were not imputed.

[4] = Immunogenicity of spartalizumab (anti-drug antibodies); format: in vivo, human
Experimental: as §1

[5] = HCC patients with > 2 prior lines of therapy, qd schedule
[6] = spartalizumab 300 mg with FGF401 80 mg, n=6
[7] = spartalizumab 300 mg with FGF401 120 mg, n=6

C=CC(=O)N[C@H]1CCOC[C@H]1Nc1ncc2cc(-c3c(Cl)c(OC)cc(OC)c3Cl)ccc2n1 [BLU-554, fisogatinib]
ORR ([1]; FGF19-negative patients): 0%
median duration of response ([1]; FGF19-positive patients, 95% CI: 3.7-not reached): 5.3 months
ORR ([1]; FGF19-positive patients): 17%
Treatment discontinuation due to AE [1]: 12%
Grade ≥ 3 TRAEs ([1]; most common transaminase elevation): 43%
treatment related AE: diarrhea ([1]; qd): 74%
treatment related AE: nausea ([1]; qd): 42%
treatment related AE: vomiting ([1]; qd): 35%

C=CC(=O)Nc1cc(N2CCN(CC)CC2)ccc1Nc1cc(N(C)C(=O)Nc2c(Cl)c(OC)cc(OC)c2Cl)ncn1 [H3B-6527]
drug discontinuation due to AEs ([2]; HCC and intrahepatic cholangiocarcinoma, qd dosing): 8.3%
Grade 3 TEAE ([2]; HCC and intrahepatic cholangiocarcinoma): 12.5%
OS [2, 5]: 10.6 months
PFS [2, 5]: 4.1 months
ORR ([2]; all PR, HCC patients with > 2 prior lines of therapy, qd schedule): 16.7%
clinical benefit rate ([2]; responders + durable SD > 17 weeks, HCC, qd schedule): 45.8%

spartalizumab: humanized immunoglobulin G4κ monoclonal antibody that binds PD-1 and blocks its interaction with PD-L1/PD-L2
AUC0-504h ([3]; spartalizumab 300 mg with FGF401 80 mg, n=3): 760 (1.9) day*µg/mL
AUClast [3, 6]: 795 (34.5) day*µg/mL
Cmax [3, 6]: 74.7 µg/mL
Tmax [3, 6]: 1.58 [1.5-161] h
AUC0-504h [3, 7]: 967 (13.9) day*µg/mL
AUClast [3, 7]: 978 (15.8) day*µg/mL
Cmax [3, 7]: 87.7 µg/mL
Tmax [3, 7]: 1.5 [1.43-1.5] h
spartalizumab exposures in combination versus similar studies with 300 mg q3w ([3]; compared with refs 25, 30): might be comparable
geo-mean AUClast ([3]; spartalizumab in combination with 80 mg FGF401): 795 µg·days/mL
geo-mean AUClast ([3]; spartalizumab in combination with 120 mg FGF401): 978 µg·days/mL
patients positive for treatment-induced ADA for spartalizumab ([4]; One of 12 patients, C2D1 and C3D1 predose): 8.3%
ADA titers ([4]; one ADA-positive patient): low to moderate
influence of ADA on PK profiles ([4]; one ADA-positive patient): did not appear to influence the PK profiles
